Assay results as given in US8153818B2, “Triazolyl phenyl benzenesulfonamides” (ChemoCentryx, Inc., priority 2006, dated 2012).
pIC50: −log10 of the molar value.

The compounds below were run against T1, CCR9 (Homo sapiens, UniProt P51686) (assay: CCR9 activity in one of the chemotaxis, binding or calcium mobilization assays). Conditions: assay not specified per compound.
T1 construct: chemokine expressing cells (such as THP-1 cells for CCR2 assay or MOLT-4 cells for CCR9 assay); host or cells: MOLT-4
T1 sequence (P51686 1-369): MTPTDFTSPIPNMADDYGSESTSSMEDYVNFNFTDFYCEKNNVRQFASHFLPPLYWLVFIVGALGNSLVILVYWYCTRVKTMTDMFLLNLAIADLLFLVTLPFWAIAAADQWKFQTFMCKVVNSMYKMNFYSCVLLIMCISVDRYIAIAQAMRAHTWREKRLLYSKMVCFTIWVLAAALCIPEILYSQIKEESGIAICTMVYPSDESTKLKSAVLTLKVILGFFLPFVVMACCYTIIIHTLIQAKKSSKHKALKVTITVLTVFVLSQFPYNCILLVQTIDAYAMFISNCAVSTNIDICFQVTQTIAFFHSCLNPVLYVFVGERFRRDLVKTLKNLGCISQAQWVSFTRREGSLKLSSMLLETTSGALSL
Format: cell-based
Outline: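 Chemotaxis: THP-1 cells (CCR2, 0.1 nM MCP-1, 90 min) or MOLT-4 cells (CCR9, 50 nM TECK, 150 min) preincubated with compound 15 min RT, migration at 37 °C through 5-μm membrane, CyQUANT read; IC50 by nonlinear regression. Calcium flux: Fluo-4-loaded cells, 0.1 nM MCP-1 or 25 nM TECK. Binding: THP-1, ~50 pM [125I]MCP-1, 3 h, 4 °C.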

Q: With `Cn1c(-c2ccccn2)nnc1-c1cc(Cl)ccc1NS(=O)(=O)c1ccc(C(C)(C)C)cc1` [Compound 97, 4-tert-butyl-N-(4-chloro-2-(4-methyl-5-(pyridin-2-yl)-4H-1,2,4-triazol-3-yl)phenyl)benzenesulfonamide] as the compound, how does the pIC50 read?
A: Its pIC50 is over 6.00.

Q: With `CC(C)n1c(CN(C)C)nnc1-c1cc(Cl)ccc1NS(=O)(=O)c1ccc(C(C)(C)C)cc1` [Compound 98, 4-tert-butyl-N-(4-chloro-2-(5-((dimethylamino)methyl)-4-isopropyl-4H-1,2,4-triazol-3-yl)phenyl)benzenesulfonamide] as the compound, how does the pIC50 read?
A: The pIC50 was over 6.00.

Q: `Cc1nnc(-c2cc(Cl)ccc2NS(=O)(=O)c2ccc(C(C)(C)C)cc2)n1C1CCNC1` (centres unmarked) [Compound 99] was tested. Which pIC50 did it give?
A: The pIC50 was over 6.00.

Q: With `Cc1nnc(-c2cc(F)c(F)cc2NS(=O)(=O)c2ccc(C(C)(C)C)cc2)n1C` [Compound 100, 4-tert-butyl-N-(2-(4,5-dimethyl-4H-1,2,4-triazol-3-yl)-4,5-difluorophenyl)benzenesulfonamide] as the compound, how does the pIC50 read?
A: Its pIC50 is over 6.00.

Q: How did the pIC50 turn out when `Cc1nnc(-c2cc(Cl)ccc2NS(=O)(=O)c2ccc(C(C)(C)C)cc2)n1C1CCOC1` (centres unmarked) [Compound 101] was run?
A: The pIC50 was over 6.00.

Q: `Cn1c(-c2cc(Cl)ccc2NS(=O)(=O)c2ccc(C(C)(C)C)cc2)nnc1C1CCCO1` (centres unmarked) [Compound 102] was tested. Which pIC50 did it give?
A: The pIC50 was over 6.00.

Q: How did the pIC50 turn out when `CC(C)OCc1nnc(-c2cc(Cl)ccc2NS(=O)(=O)c2ccc(C(C)(C)C)cc2)n1C` [Compound 103, 4-tert-butyl-N-(4-chloro-2-(5-(isopropoxymethyl)-4-methyl-4H-1,2,4-triazol-3-yl)phenyl)benzenesulfonamide] was run?
A: The pIC50 was over 6.00.

Q: `CC(C)(C)c1ccc(S(=O)(=O)Nc2ccc(Cl)cc2-c2nncn2[C@H]2CCCOC2)cc1` [Compound 104] was tested. Which pIC50 did it give?
A: The pIC50 was over 6.00.

Q: With `CCc1nnc(-c2cc(Cl)ccc2NS(=O)(=O)c2ccc(C(C)(C)C)cc2)n1C` [Compound 105, 4-tert-butyl-N-(4-chloro-2-(5-ethyl-4-methyl-4H-1,2,4-triazol-3-yl)phenyl)benzenesulfonamide] as the compound, how does the pIC50 read?
A: The pIC50 was over 6.00.

Q: With `Cc1nnc(-c2cc(Cl)c(F)cc2NS(=O)(=O)c2ccc(C(C)(C)C)cc2)n1[C@H]1CCNC1` [Compound 106] as the compound, how does the pIC50 read?
A: Its pIC50 is over 6.00.

Q: `COCc1nnc(-c2cc(Cl)c(F)cc2NS(=O)(=O)c2ccc(C(C)(C)C)cc2)n1C` [Compound 107, 4-tert-butyl-N-(4-chloro-5-fluoro-2-(5-(methoxymethyl)-4-methyl-4H-1,2,4-triazol-3-yl)phenyl)benzenesulfonamide] was tested. Which pIC50 did it give?
A: The pIC50 was over 6.00.

Q: With `CC(C)(C)c1ccc(S(=O)(=O)Nc2cc(F)c(Cl)cc2-c2nncn2C2CCCOC2)cc1` (centres unmarked) [Compound 108] as the compound, how does the pIC50 read?
A: Its pIC50 is over 6.00.

Q: How did the pIC50 turn out when `CC(C)(C)c1ccc(S(=O)(=O)Nc2cc(F)c(Cl)cc2-c2nncn2[C@H]2CCNC2)cc1` [Compound 109] was run?
A: Its pIC50 is over 6.00.

Q: `CCc1nnc(-c2cc(Cl)c(F)cc2NS(=O)(=O)c2ccc(C(C)(C)C)cc2)n1C` [Compound 110, 4-tert-butyl-N-(4-chloro-2-(5-ethyl-4-methyl-4H-1,2,4-triazol-3-yl)-5-fluorophenyl)benzenesulfonamide] was tested. Which pIC50 did it give?
A: The pIC50 was over 6.00.

Q: With `Cn1c(-c2cocn2)nnc1-c1cc(Cl)c(F)cc1NS(=O)(=O)c1ccc(C(C)(C)C)cc1` [Compound 111] as the compound, how does the pIC50 read?
A: Its pIC50 is over 6.00.

Q: How did the pIC50 turn out when `CC(C)(C)c1ccc(S(=O)(=O)Nc2cc(F)c(Cl)cc2-c2nncn2[C@H]2CCCNC2)cc1` [Compound 112] was run?
A: The pIC50 was over 6.00.

Q: With `CC(C)(C)c1ccc(S(=O)(=O)Nc2ccc(Cl)cc2-c2nncn2[C@H]2CCCNC2)cc1` [Compound 113] as the compound, how does the pIC50 read?
A: Its pIC50 is over 6.00.

Q: With `Cc1nnc(-c2cc(Cl)ccc2NS(=O)(=O)c2ccc(C(C)(C)C)cc2)n1[C@H]1CCCNC1` [Compound 114] as the compound, how does the pIC50 read?
A: Its pIC50 is over 6.00.

Q: With `Cn1c(-c2cc(Cl)c(F)cc2NS(=O)(=O)c2ccc(C(C)(C)C)cc2)nnc1C1CCOC1` (centres unmarked) [Compound 115] as the compound, how does the pIC50 read?
A: The pIC50 was over 6.00.

Q: How did the pIC50 turn out when `Cn1c(-c2cc(Cl)c(F)cc2NS(=O)(=O)c2ccc(C(C)(C)C)cc2)nnc1C1CCOCC1` [Compound 116] was run?
A: The pIC50 was over 6.00.

Q: `Cc1ocnc1-c1nnc(-c2cc(Cl)ccc2NS(=O)(=O)c2ccc(C(C)(C)C)cc2)n1C` [Compound 117] was tested. Which pIC50 did it give?
A: Its pIC50 is over 6.00.

Q: How did the pIC50 turn out when `CC(C)c1nnc(-c2cc(Cl)ccc2NS(=O)(=O)c2ccc(C(C)(C)C)cc2)n1[C@H]1CCNC1` [Compound 118, (S)-4-tert-butyl-N-(4-chloro-2-(5-isopropyl-4-(pyrrolidin-3-yl)-4H-1,2,4-triazol-3-yl)phenyl)benzenesulfonamide] was run?
A: Its pIC50 is over 6.00.

Q: With `CCc1nnc(-c2cc(Cl)ccc2NS(=O)(=O)c2ccc(C(C)(C)C)cc2)n1[C@H]1CCNC1` [Compound 119, (S)-4-tert-butyl-N-(4-chloro-2-(5-ethyl-4-(pyrrolidin-3-yl)-4H-1,2,4-triazol-3-yl)phenyl)benzenesulfonamide] as the compound, how does the pIC50 read?
A: Its pIC50 is over 6.00.

Q: With `CC(C)(C)c1ccc(S(=O)(=O)Nc2cc(F)c(Cl)cc2-c2nncn2C2CCOC2)cc1` (centres unmarked) [Compound 120] as the compound, how does the pIC50 read?
A: The pIC50 was over 6.00.

Q: With `Cn1c(CN2CCCC2)nnc1-c1cc(Cl)c(F)cc1NS(=O)(=O)c1ccc(C(C)(C)C)cc1` [Compound 121] as the compound, how does the pIC50 read?
A: The pIC50 was over 6.00.

Q: With `Cn1c(CN2CCC2)nnc1-c1cc(Cl)c(F)cc1NS(=O)(=O)c1ccc(C(C)(C)C)cc1` [Compound 122] as the compound, how does the pIC50 read?
A: Its pIC50 is over 6.00.

Q: With `Cn1c(CO)nnc1-c1cc(Cl)c(F)cc1NS(=O)(=O)c1ccc(C(C)(C)C)cc1` [Compound 123, 4-tert-butyl-N-(4-chloro-5-fluoro-2-(5-(hydroxymethyl)-4-methyl-4H-1,2,4-triazol-3-yl)phenyl)benzenesulfonamide] as the compound, how does the pIC50 read?
A: The pIC50 was over 6.00.

Q: How did the pIC50 turn out when `CC(=O)N1CCC(n2c(C)nnc2-c2cc(Cl)ccc2NS(=O)(=O)c2ccc(C(C)(C)C)cc2)C1` (centres unmarked) [Compound 124] was run?
A: Its pIC50 is over 6.00.

Q: How did the pIC50 turn out when `Cc1nnc(-c2cc(Cl)ccc2NS(=O)(=O)c2ccc(C(C)(C)C)cc2)n1CCN(C)C` [Compound 125, 4-tert-butyl-N-(4-chloro-2-(4-(2-(dimethylamino)ethyl)-5-methyl-4H-1,2,4-triazol-3-yl)phenyl)benzenesulfonamide] was run?
A: The pIC50 was over 6.00.

Q: How did the pIC50 turn out when `CNCCn1c(C)nnc1-c1cc(Cl)ccc1NS(=O)(=O)c1ccc(C(C)(C)C)cc1` [Compound 126, 4-tert-butyl-N-(4-chloro-2-(5-methyl-4-(2-(methylamino)ethyl)-4H-1,2,4-triazol-3-yl)phenyl)benzenesulfonamide] was run?
A: The pIC50 was over 6.00.

Q: With `Cc1nnc(-c2cc(Cl)ccc2NS(=O)(=O)c2ccc(C(C)(C)C)cc2)n1[C@H]1CCNC1` [Compound 127] as the compound, how does the pIC50 read?
A: The pIC50 was over 6.00.

Q: `CCc1nnc(-c2cc(C#N)ccc2NS(=O)(=O)c2ccc(C(C)(C)C)cc2)n1C` [Compound 128, 4-tert-butyl-N-(4-cyano-2-(5-ethyl-4-methyl-4H-1,2,4-triazol-3-yl)phenyl)benzenesulfonamide] was tested. Which pIC50 did it give?
A: The pIC50 was over 6.00.

Q: `CCc1nnc(-c2cc(C(N)=O)ccc2NS(=O)(=O)c2ccc(C(C)(C)C)cc2)n1C` [Compound 129, 4-(4-tert-butylphenylsulfonamido)-3-(5-ethyl-4-methyl-4H-1,2,4-triazol-3-yl)benzamide] was tested. Which pIC50 did it give?
A: The pIC50 was over 6.00.

Q: How did the pIC50 turn out when `CCc1nnc(-c2cc(C(=O)O)ccc2NS(=O)(=O)c2ccc(C(C)(C)C)cc2)n1C` [Compound 130, 4-(4-tert-butylphenylsulfonamido)-3-(5-ethyl-4-methyl-4H-1,2,4-triazol-3-yl)benzoic acid] was run?
A: Its pIC50 is over 6.00.

Q: How did the pIC50 turn out when `CC(C)(C)c1ccc(S(=O)(=O)Nc2ccc(Cl)cc2-c2nncn2C2CNC2)cc1` [Compound 131] was run?
A: The pIC50 was over 6.00.
